Measurements taken from the supplement of paper PMC4862054.

Experiments:
Settings in all cases: incubation time: 72 h
[1] = test system: DU-4475; experiment: drug sensitivity score (DSS), CellTox Green (DSS (AUC-based score)); higher = stronger drug effect (viability inhibition or cytotoxicity); extreme values may be limits of the assay
Outline: (§1)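 Plates with 384 wells held compound at 5 concentrations in 10-fold steps over a 10,000-fold range specific to each compound. Breast cancer cell lines were added in 20 µl suspension and incubated 72 h, then read for CellTox Green and CellTiter-Glo signals, with each plate normalised to 0.1 % DMSO and a positive kill control. The drug sensitivity score is based on the area under the fitted dose-response curve.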

[2] = test system: CAL-120; experiment: as above
Outline: as §1

[3] = test system: Hs578T; experiment: as above
Outline: as §1

[4] = test system: BT-474; experiment: as above
Outline: as §1

[5] = test system: CAL-51; experiment: as above
Outline: as §1

[6] = test system: HDQ-P1; experiment: as above
Outline: as §1

[7] = test system: BT-549; experiment: as above
Outline: as §1

[8] = test system: HCC1143; experiment: as above
Outline: as §1

[9] = test system: MDA-MB-453; experiment: as above
Outline: as §1

[10] = test system: CAL-148; experiment: as above
Outline: as §1

[11] = test system: CAL-120; experiment: drug sensitivity score (DSS), CellTiter-Glo (DSS (AUC-based score)); higher = stronger drug effect (viability inhibition or cytotoxicity); extreme values may be limits of the assay
Outline: as §1

[12] = test system: DU-4475; experiment: normalised viability (% of control), CellTiter-Blue; higher = more viable cells (about 100 = DMSO control)
Procedure: (§2)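 DSRT, CellTiter-Blue viability, 72 h incubation. Signal is normalised to DMSO and benzethonium chloride controls. Value is the normalised response at dose 3.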

[13] = test system: CAL-85-1; experiment: as above
Procedure: as §2

[14] = test system: MDA-MB-468; experiment: as above
Procedure: as §2

[15] = test system: CAL-120; experiment: as above
Procedure: as §2

[16] = test system: HCC1937; experiment: as above
Procedure: as §2

[17] = test system: Hs578T; experiment: as above
Procedure: as §2

[18] = test system: BT-474; experiment: as above
Procedure: as §2

[19] = test system: CAL-51; experiment: as above
Procedure: as §2

[20] = test system: SK-BR-3; experiment: as above
Procedure: as §2

[21] = test system: HDQ-P1; experiment: as above
Procedure: as §2

[22] = test system: BT-549; experiment: as above
Procedure: as §2

[23] = test system: HCC1599; experiment: as above
Procedure: as §2

[24] = test system: MDA-MB-436; experiment: as above
Procedure: as §2

[25] = test system: HCC1143; experiment: as above
Procedure: as §2

[26] = test system: MDA-MB-453; experiment: as above
Procedure: as §2

[27] = test system: MDA-MB-231; experiment: as above
Procedure: as §2

[28] = test system: CAL-148; experiment: as above
Procedure: as §2

[29] = test system: MFM-223; experiment: as above
Procedure: as §2

Structure (SMILES) | drug sensitivity score [1] | drug sensitivity score [2] | drug sensitivity score [3] | drug sensitivity score [4] | drug sensitivity score [5] | drug sensitivity score [6] | drug sensitivity score [7] | drug sensitivity score [8] | drug sensitivity score [9] | drug sensitivity score [10] | drug sensitivity score [11] | further results
COC(=O)c1ccc2c(c1)NC(=O)/C2=C(\Nc1ccc(N(C)C(=O)CN2CCN(C)CC2)cc1)c1ccccc1 [Nintedanib] | 0 | 0 | 0 | 6.74 | 6.03 | 0 | 2.06 | 0 | 0 | 0 | 3.62 | –
Cc1cc(Nc2cc(CN3CCOCC3)c3nc(C)c(Cc4ccc(Cl)cc4F)n3n2)n[nH]1 [Gandotinib] | 0 | 0 | 7.9 | 0 | 7.6 | 0 | 0 | 0 | 0 | 0 | 3.77 | –
Nc1cc(C(F)(F)F)c(-c2cc(N3CCOCC3)nc(N3CCOCC3)n2)cn1 [Buparlisib] | 0 | 0 | 2.89 | 3.4 | 6.04 | 0 | 1.91 | 0 | 0 | 0 | 2.39 | –
CCOC(=O)CCNc1cc(N2CCc3ccccc3CC2)nc(-c2ccccn2)n1 [GSK-J4] | 2.65 | 8.01 | 20.6 | 19 | 11.4 | 11.6 | 7.69 | 18.6 | 7.34 | 10.9 | 10.7 | –
O=C(Nc1cccnc1)N1CCC(Cc2cccc(Oc3ccc(C(F)(F)F)cn3)c2)CC1 [PF-3845] | 0 | 0 | 0 | 0 | 0 | – | 0 | 0 | 0 | 0 | 0.24 | normalised viability ([12]; 10 nM): 104%; normalised viability ([13]; 10 nM): 92.2%; normalised viability ([14]; 100 nM): 102%; normalised viability ([15]; 100 nM): 96.5%; normalised viability ([16]; 100 nM): 107%; normalised viability ([17]; 100 nM): 122%; normalised viability ([18]; 100 nM): 116%; normalised viability ([19]; 10 nM): 101%; normalised viability ([20]; 100 nM): 104%; normalised viability ([21]; 10 nM): 116%; normalised viability ([22]; 100 nM): 111%; normalised viability ([23]; 100 nM): 99.6%; normalised viability ([24]; 100 nM): 113%; normalised viability ([25]; 100 nM): 89.9%; normalised viability ([26]; 10 nM): 105%; normalised viability ([27]; 100 nM): 128%; normalised viability ([28]; 10 nM): 86.9%; normalised viability ([29]; 100 nM): 90.1%
COc1cc2c(NC3CCN(C(C)C)CC3)nc(N3CCC(F)(F)CC3)nc2cc1OCCCN1CCCC1 [UNC0642] | 0 | 4.13 | 0 | 6.46 | 0 | 0 | 0 | 0 | 1.18 | 2.77 | 0 | –
CNC(=O)c1cccc(-c2ccc3c(N4CCOC[C@@H]4C)nc(N4CCOC[C@@H]4C)nc3n2)c1 [AZD2014] | 0 | 0 | 0 | 0 | 0 | 0 | 0 | 0 | 0 | 11 | 14.9 | –
COc1cc(O)c2c(c1)/C=C/C[C@H](O)[C@H](O)C(=O)/C=C\C[C@H](C)OC2=O [(5Z)-7-Oxozeaenol] | 4.86 | 0 | 8.72 | 1.65 | 1.06 | 0 | 0 | 0 | 0 | 16.9 | 4.12 | –
CNC(=O)c1ccc(N2C(=S)N(c3ccc(C#N)c(C(F)(F)F)c3)C(=O)C23CCC3)cc1F [RD162] | 0 | 0 | 0 | 0 | 0 | 0 | 0 | – | 0 | 0 | 0 | –
Nc1cc(C(F)(F)F)c(-c2cc(N3CCOCC3)nc(N3CCOCC3)n2)cn1 [BKM-120] | – | – | – | – | – | – | – | – | – | – | – | normalised viability ([12]; 10 nM): 98.3%; normalised viability ([13]; 10 nM): 86.6%; normalised viability ([14]; 100 nM): 99.2%; normalised viability ([15]; 100 nM): 81.3%; normalised viability ([16]; 100 nM): 112%; normalised viability ([17]; 100 nM): 96.6%; normalised viability ([18]; 100 nM): 115%; normalised viability ([19]; 10 nM): 98.5%; normalised viability ([20]; 100 nM): 76.7%; normalised viability ([21]; 10 nM): 111%; normalised viability ([22]; 100 nM): 96.8%; normalised viability ([23]; 100 nM): 70.1%; normalised viability ([24]; 100 nM): 90.2%; normalised viability ([25]; 100 nM): 86.1%; normalised viability ([26]; 10 nM): 96%; normalised viability ([27]; 100 nM): 83.6%; normalised viability ([28]; 10 nM): 94.9%; normalised viability ([29]; 100 nM): 84%
S=P(N1CC1)(N1CC1)N1CC1 [Thio-TEPA] | 0 | 0 | 3.7 | 0 | – | 0 | 0 | – | 0 | 0 | 0 | normalised viability ([12]; 100 nM): 102%; normalised viability ([13]; 100 nM): 102%; normalised viability ([14]; 1000 nM): 103%; normalised viability ([15]; 1000 nM): 86.7%; normalised viability ([16]; 1000 nM): 123%; normalised viability ([17]; 1000 nM): 90.8%; normalised viability ([18]; 1000 nM): 114%; normalised viability ([19]; 100 nM): 93.7%; normalised viability ([20]; 1000 nM): 91.1%; normalised viability ([21]; 100 nM): 120%; normalised viability ([22]; 1000 nM): 105%; normalised viability ([23]; 1000 nM): 87.4%; normalised viability ([24]; 1000 nM): 118%; normalised viability ([25]; 1000 nM): 88.8%; normalised viability ([26]; 100 nM): 97.6%; normalised viability ([27]; 1000 nM): 98.2%; normalised viability ([28]; 100 nM): 102%; normalised viability ([29]; 1000 nM): 88.4%
